Assay [1] has as its target Acyl-homoserine lactone acylase PvdQ (Pseudomonas aeruginosa (strain LESB58), UniProt Q9I194). As to the kind of experiment: PvdQ acylase enzyme activity blockers – biochemical, fluorescence, plate reader and imaging, cherry-picks, dose response (AID 493231).
In assay [2] the target is Lysosomal acid glucosylceramidase (Homo sapiens, UniProt P04062). As to the kind of experiment: Dose response cell-based high throughput screening assay to identify enhancers of beta-glucosidase activity. [Related pubchem assays: 784 ]. The format is functional.
Sequence of Lysosomal acid glucosylceramidase (P04062 whole entry): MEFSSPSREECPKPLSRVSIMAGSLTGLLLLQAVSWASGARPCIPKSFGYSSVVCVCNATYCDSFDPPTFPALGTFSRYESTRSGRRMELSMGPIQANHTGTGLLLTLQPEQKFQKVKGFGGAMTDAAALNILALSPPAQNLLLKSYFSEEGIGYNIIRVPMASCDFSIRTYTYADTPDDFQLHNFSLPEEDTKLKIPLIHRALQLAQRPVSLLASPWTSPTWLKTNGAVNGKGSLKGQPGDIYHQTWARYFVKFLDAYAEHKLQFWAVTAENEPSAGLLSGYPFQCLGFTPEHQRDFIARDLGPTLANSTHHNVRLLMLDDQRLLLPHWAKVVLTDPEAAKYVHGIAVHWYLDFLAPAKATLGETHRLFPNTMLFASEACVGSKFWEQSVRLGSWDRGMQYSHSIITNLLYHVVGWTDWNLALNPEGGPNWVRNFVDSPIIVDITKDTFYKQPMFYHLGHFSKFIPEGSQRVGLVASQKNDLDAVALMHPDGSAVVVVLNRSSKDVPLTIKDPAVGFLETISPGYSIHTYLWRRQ
The next assay addresses Cytochrome P450 3A4 (Homo sapiens, UniProt P08684). The conditions noted are these: Potency.
In the next assay the target is Cytochrome P450 2C9 (Homo sapiens, UniProt P11712). As to conditions: Potency.
Sequence of Cytochrome P450 2C9 (P11712 whole entry): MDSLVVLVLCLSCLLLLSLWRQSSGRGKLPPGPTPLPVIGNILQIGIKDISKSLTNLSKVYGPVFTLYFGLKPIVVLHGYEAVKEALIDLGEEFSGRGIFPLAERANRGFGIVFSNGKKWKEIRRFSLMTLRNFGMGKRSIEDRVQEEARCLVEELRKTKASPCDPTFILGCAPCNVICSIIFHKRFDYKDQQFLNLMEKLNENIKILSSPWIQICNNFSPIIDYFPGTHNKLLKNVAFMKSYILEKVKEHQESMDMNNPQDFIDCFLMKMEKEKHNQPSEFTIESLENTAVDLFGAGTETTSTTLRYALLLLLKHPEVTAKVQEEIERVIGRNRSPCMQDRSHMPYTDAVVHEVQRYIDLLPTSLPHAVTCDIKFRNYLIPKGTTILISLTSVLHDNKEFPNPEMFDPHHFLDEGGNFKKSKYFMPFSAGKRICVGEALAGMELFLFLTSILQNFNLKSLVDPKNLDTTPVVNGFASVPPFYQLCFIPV

From ChEMBL document CHEMBL1201862, “PubChem BioAssay data set” (2004) come the findings set out here.

SMILES strings stand for the structures. Active and inactive are the calls of the source.

Sequence of Acyl-homoserine lactone acylase PvdQ (Q9I194 24-193 limits assumed): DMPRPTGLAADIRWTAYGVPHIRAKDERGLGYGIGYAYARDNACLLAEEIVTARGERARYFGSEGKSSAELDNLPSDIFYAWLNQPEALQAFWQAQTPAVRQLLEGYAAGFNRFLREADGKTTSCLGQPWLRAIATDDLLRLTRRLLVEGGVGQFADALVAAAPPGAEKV
Sequence of Acyl-homoserine lactone acylase PvdQ (Q9I194 217-762 limits assumed): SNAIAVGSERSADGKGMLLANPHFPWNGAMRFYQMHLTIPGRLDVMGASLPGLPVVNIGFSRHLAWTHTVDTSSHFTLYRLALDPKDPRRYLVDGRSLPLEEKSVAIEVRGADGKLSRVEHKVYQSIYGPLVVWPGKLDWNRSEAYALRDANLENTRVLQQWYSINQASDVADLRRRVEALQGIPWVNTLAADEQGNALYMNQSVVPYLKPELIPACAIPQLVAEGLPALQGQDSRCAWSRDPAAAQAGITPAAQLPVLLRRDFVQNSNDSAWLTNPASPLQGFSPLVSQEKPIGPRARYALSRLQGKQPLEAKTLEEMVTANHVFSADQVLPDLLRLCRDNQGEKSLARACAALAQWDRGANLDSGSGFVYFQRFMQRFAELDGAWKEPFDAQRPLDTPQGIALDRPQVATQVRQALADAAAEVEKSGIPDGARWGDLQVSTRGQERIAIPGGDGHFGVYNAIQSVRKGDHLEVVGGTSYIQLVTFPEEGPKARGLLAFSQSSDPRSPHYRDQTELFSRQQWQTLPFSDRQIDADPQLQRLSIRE
Sequence of Cytochrome P450 3A4 (P08684 whole entry): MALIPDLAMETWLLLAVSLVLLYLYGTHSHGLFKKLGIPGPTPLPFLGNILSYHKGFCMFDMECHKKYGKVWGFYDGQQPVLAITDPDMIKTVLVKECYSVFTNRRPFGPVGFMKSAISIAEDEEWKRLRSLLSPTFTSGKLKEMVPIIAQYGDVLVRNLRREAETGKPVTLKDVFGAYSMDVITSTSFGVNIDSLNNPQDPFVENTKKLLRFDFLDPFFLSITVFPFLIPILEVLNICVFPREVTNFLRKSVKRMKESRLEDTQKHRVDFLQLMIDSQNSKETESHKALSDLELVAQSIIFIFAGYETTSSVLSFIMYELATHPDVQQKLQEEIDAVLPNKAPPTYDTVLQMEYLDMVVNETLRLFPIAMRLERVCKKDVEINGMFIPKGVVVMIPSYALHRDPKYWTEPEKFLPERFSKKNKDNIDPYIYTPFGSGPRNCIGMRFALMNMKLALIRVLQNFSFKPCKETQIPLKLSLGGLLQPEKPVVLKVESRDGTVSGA

On to `O=C1C=C(c2ccccc2C(F)(F)F)C[C@@H](c2ccc3c(c2)OCO3)C1`, for which the AC50 in assay [1] was > 100 µM (inactive).
With `O=C(OCCN1CCCCC1)c1cc2ccccc2o1`, the half-maximal effective concentration (EC50) in assay [2] is listed as > 10 µM (not active).
On to `CC1CN2C(CCC(C)C2c2ccc(Br)cc2)C(=O)O1` (centres undefined), for which the values for the AC50 at Cytochrome P450 3A4 and on Cytochrome P450 2C9 were 5.01 µM (inconclusive) and 3.98 µM (inconclusive), respectively.
